Source: patent US20240246942A1, “KINASE INHIBITORS FOR THE TREATMENT OF NEURODEGENERATIVE DISEASES” (priority 2020, published 2024)

How the values were obtained:
[1] = biological target: T1, panel of 374 wild-type kinases (Homo sapiens, UniProt Q8TDC3); assay: biochemical; settings: read-out: % Enzyme Activity (relative to DMSO controls), BRSK1
T1 construct: purchased Reaction Biology Corporation
T1 sequence (Q8TDC3 1-778): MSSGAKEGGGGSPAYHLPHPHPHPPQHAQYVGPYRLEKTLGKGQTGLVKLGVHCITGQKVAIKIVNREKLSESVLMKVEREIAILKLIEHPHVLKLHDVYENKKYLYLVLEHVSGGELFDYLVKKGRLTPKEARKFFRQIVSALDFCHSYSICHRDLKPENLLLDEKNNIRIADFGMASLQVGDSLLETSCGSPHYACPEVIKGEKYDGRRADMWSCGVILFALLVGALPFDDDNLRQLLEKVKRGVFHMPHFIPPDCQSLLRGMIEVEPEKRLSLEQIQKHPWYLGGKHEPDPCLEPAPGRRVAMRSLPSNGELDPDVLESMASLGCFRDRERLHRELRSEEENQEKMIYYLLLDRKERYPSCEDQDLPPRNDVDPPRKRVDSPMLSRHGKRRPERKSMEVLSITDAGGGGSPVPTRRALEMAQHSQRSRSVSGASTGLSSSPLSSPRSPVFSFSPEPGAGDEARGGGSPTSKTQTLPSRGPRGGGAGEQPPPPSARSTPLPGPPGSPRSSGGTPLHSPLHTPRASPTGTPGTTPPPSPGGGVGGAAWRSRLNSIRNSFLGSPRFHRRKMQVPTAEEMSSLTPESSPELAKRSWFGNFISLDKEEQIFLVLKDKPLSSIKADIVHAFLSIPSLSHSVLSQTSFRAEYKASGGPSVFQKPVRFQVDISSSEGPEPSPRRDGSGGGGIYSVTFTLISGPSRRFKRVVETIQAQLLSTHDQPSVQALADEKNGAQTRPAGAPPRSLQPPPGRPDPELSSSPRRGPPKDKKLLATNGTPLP

[2] = biological target: T2, panel of 374 wild-type kinases (Homo sapiens, UniProt Q12866); assay: biochemical; settings: read-out: % Enzyme Activity (relative to DMSO controls), c-MER
T2 construct: purchased Reaction Biology Corporation
T2 sequence (Q12866 21-999): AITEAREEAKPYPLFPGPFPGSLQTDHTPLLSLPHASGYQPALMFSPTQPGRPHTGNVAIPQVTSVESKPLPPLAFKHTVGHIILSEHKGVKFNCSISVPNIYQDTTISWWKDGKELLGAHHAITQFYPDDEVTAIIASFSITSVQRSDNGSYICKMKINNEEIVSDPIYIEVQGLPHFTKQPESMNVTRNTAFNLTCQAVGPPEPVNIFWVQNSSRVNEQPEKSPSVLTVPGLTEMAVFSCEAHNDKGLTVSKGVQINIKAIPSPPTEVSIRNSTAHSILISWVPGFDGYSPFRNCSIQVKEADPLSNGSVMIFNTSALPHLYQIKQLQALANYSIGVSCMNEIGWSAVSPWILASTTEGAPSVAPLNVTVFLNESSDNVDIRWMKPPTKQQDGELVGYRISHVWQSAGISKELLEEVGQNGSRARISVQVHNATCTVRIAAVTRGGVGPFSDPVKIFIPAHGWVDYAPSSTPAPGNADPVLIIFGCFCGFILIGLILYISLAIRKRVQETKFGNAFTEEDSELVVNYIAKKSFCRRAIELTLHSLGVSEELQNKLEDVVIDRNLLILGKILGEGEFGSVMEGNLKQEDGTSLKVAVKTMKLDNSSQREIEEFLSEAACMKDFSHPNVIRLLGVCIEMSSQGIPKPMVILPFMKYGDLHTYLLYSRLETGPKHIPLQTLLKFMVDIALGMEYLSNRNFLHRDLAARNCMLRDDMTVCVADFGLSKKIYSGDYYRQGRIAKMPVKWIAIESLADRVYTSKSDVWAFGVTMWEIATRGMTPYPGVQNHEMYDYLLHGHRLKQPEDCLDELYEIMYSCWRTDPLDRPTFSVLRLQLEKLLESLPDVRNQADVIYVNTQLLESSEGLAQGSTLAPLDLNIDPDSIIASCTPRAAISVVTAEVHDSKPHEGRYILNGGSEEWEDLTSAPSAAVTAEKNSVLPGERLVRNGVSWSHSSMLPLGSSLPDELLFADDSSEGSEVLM

## O=C(Nc1cnn(-c2csc(C(=O)NC3COC3)c2)c1)Nc1c(F)cccc1Cl [Compound 25, 4-(4-(3-(2-chloro-6-fluorophenyl)ureido)-1H-pyrazol-1-yl)-N-(oxetan-3-yl)thiophene-2-carboxamide]
[1]
  remaining activity at 5 µM: 99.4%
[2]
  remaining activity at 5 µM: 77.1%

## O=C(Nc1cnn(-c2csc(C(=O)NC3COC3)c2)c1)Nc1ccccc1Cl [Compound 17, 4-(4-(3-(2-chlorophenyl)ureido)-1H-pyrazol-1-yl)-N-(oxetan-3-yl)thiophene-2-carboxamide]
[1]
  remaining activity at 5 µM: 85.5%
[2]
  remaining activity at 5 µM: 92.7%

## Cc1sc(C(=O)NC2COC2)cc1-n1cc(NC(=O)Nc2c(F)cccc2Cl)cn1 [Compound 27, 4-(4-(3-(2-chloro-6-fluorophenyl)ureido)-1H-pyrazol-1-yl)-5-methyl-N-(oxetan-3-yl)thiophene-2-carboxamide]
[1]; 10 uM
  remaining activity at 10 µM: 87.8%
[2]; 10 uM
  remaining activity at 10 µM: 103%
